Results taken from patent US10533015B1, “Opioid receptor antagonist prodrugs” (Nirsum Laboratories, Inc., priority 2019, dated 2020).
Where two headings read alike, the source gives them in different places.

[1] = heating temp. 60 °C, obs. temp. 25 °C
[2] = heating temp. 60 °C, obs. temp. 40 °C
[3] = heating temp. 40 °C, obs. temp. 40 °C
[4] = section 'Solubility by volumetric flask method', heating temp. 40 °C, obs. temp. 40 °C

Compound	Approximate Solubility (mg/mL) in Excipient: Cottonseed oil [1]	Approximate Solubility (mg/mL) in Excipient: Sesame oil [1]	Equilibrium solubility (mg/mL) Water [3]	other results
CCCCCCCC/C=C\CCCCCCCCCCCC(=O)Oc1ccc2c3c1O[C@H]1C(=O)CC[C@@]4(O)C(C2)N(CC2CC2)CC[C@]314 [Compound 22, (4aS,7aR,12bS)-3-(cyclopropylmethyl)-4a-hydroxy-7-oxo-2,3,4,4a,5,6,7,7a-octahydro-1H-4,12-methanobenzofuro[3,2-e]isoquinolin-9-yl (Z)-docos-13-enoate]	67 to 80 mg/mL	67 to 80 mg/mL	–	Approximate Solubility (mg/mL) in Excipient: Cottonseed oil [2]: >405.9 mg/mL; Approximate Solubility (mg/mL) in Excipient: Ethanol [2]: >397.7 mg/mL; Approximate Solubility (mg/mL) in Excipient: Sesame oil [2]: >401.9 mg/mL
C=C1CC[C@@]2(O)C3Cc4ccc(OC(=O)CCCCCCCCCCCCCCCCC)c5c4[C@@]2(CCN3CC2CC2)[C@H]1O5 [Compound 12, (4aS,7aS,12bS)-3-(cyclopropylmethyl)-4a-hydroxy-7-methylene-2,3,4,4a,5,6,7,7a-octahydro-1H-4,12-methanobenzofuro[3,2-e]isoquinolin-9-yl stearate]	<51 mg/mL	<50 mg/mL	–	Approximate Solubility (mg/mL) in Excipient: Cottonseed oil [3]: 100 to 120 mg/mL; Approximate Solubility (mg/mL) in Excipient: Cottonseed oil [2]: >398.5 mg/mL; Approximate Solubility (mg/mL) in Excipient: Ethanol [3]: 65 to 75 mg/mL; Approximate Solubility (mg/mL) in Excipient: Sesame oil [3]: 70 to 95 mg/mL; Approximate Solubility (mg/mL) in Excipient: Sesame oil [2]: >411.1 mg/mL
CCCCCCCCCCCCCCCCOC(=O)OCOc1ccc2c3c1O[C@H]1C(=O)CC[C@@]4(O)C(C2)N(CC2CC2)CC[C@]314 [Compound 47, (((4aS,7aR,12bS)-3-(cyclopropylmethyl)-4a-hydroxy-7-oxo-2,3,4,4a,5,6,7,7a-octahydro-1H-4,12-methanobenzofuro[3,2-e]isoquinolin-9-yl)oxy)methyl hexadecyl carbonate]	>405.5 mg/mL	–	<0.001 mg/mL	–
C=C1CC[C@@]2(O)C3Cc4ccc(OC(=O)OCCCCCCCCCCC)c5c4[C@@]2(CCN3CC2CC2)[C@H]1O5 [Compound 3, (4aS,7aS,12bS)-3-(cyclopropylmethyl)-4a-hydroxy-7-methylene-2,3,4,4a,5,6,7,7a-octahydro-1H-4,12-methanobenzofuro[3,2-e]isoquinolin-9-yl undecyl carbonate]	–	–	–	Solubility by volumetric flask method: Cottonseed oil [1]: >399.12 mg/mL; Solubility by volumetric flask method: Sesame oil [1]: >400.7 mg/mL; Equilibrium solubility (mg/mL) Water [4]: <0.001 mg/mL
CCCCCCCCCCCCCCCC(=O)OCOc1ccc2c3c1O[C@H]1C(=O)CC[C@@]4(O)C(C2)N(CC2CC2)CC[C@]314 [Compound 49, (((4aS,7aR,12bS)-3-(cyclopropylmethyl)-4a-hydroxy-7-oxo-2,3,4,4a,5,6,7,7a-octahydro-1H-4,12-methanobenzofuro[3,2-e]isoquinolin-9-yl)oxy)methyl hexadecanoate]	<50 mg/mL	<51 mg/mL	–	–
CCCCCCCCCCCCOC(=O)OCOc1ccc2c3c1O[C@H]1C(=O)CC[C@@]4(O)C(C2)N(CC2CC2)CC[C@]314 [Compound 29, (((4aS,7aR,12bS)-3-(cyclopropylmethyl)-4a-hydroxy-7-oxo-2,3,4,4a,5,6,7,7a-octahydro-1H-4,12-methanobenzofuro[3,2-e]isoquinolin-9-yl)oxy)methyl dodecyl carbonate]	>410.2 mg/mL	>416.5 mg/mL	<0.001 mg/mL	–
CCCCCCCC/C=C/CCCCCCCC(=O)Oc1ccc2c3c1O[C@H]1C(=O)CC[C@@]4(O)C(C2)N(CC2CC2)CC[C@]314 [Compound 8, (4aS,7aR,12bS)-3-(cyclopropylmethyl)-4a-hydroxy-7-oxo-2,3,4,4a,5,6,7,7a-octahydro-1H-4,12-methanobenzofuro[3,2-e]isoquinolin-9-yl (E)-octadec-9-enoate]	–	–	–	Approximate Solubility (mg/mL) in Excipient: Cottonseed oil (heating 60 °C, obs. 25 °C, initial failed batch due to non-optimized synthesis): <50 mg/mL; Solubility by volumetric flask method: Sesame oil [1]: >399.8 mg/mL; Equilibrium solubility (mg/mL) Water [4]: <0.001 mg/mL
C=C1CC[C@@]2(O)C3Cc4ccc(OC(=O)CCCCCCC/C=C\C/C=C\CCCCC)c5c4[C@@]2(CCN3CC2CC2)[C@H]1O5 [Compound 37, (4aS,7aS,12bS)-3-(cyclopropylmethyl)-4a-hydroxy-7-methylene-2,3,4,4a,5,6,7,7a-octahydro-1H-4,12-methanobenzofuro[3,2-e]isoquinolin-9-yl (9Z,12Z)-octadeca-9,12-dienoate]	68.5-82^ mg/mL	80 to 102 mg/mL	–	Approximate Solubility (mg/mL) in Excipient: Castor oil (Castor oil, heating temp. 40 °C, obs. temp. 40 °C): >226 mg/mL; Approximate Solubility (mg/mL) in Excipient: Ethanol [3]: 75 to 90 mg/mL; Approximate Solubility (mg/mL) in Excipient: Sesame oil [3]: >408.4 mg/mL
C=C1CC[C@@]2(O)C3Cc4ccc(OC(=O)OCCCCCCCCCCCCCCCCCC)c5c4[C@@]2(CCN3CC2CC2)[C@H]1O5 [Compound 33, (4aS,7aS,12bS)-3-(cyclopropylmethyl)-4a-hydroxy-7-methylene-2,3,4,4a,5,6,7,7a-octahydro-1H-4,12-methanobenzofuro[3,2-e]isoquinolin-9-yl octadecyl carbonate]	<50 mg/mL	<51 mg/mL	<0.001 mg/mL	–
CCCCCCCCCCCC(=O)OCOc1ccc2c3c1O[C@H]1C(=O)CC[C@@]4(O)C(C2)N(CC2CC2)CC[C@]314 [Compound 48, (((4aS,7aR,12bS)-3-(cyclopropylmethyl)-4a-hydroxy-7-oxo-2,3,4,4a,5,6,7,7a-octahydro-1H-4,12-methanobenzofuro[3,2-e]isoquinolin-9-yl)oxy)methyl dodecanoate]	>410.5 mg/mL	–	–	–
CCCCCCCC/C=C/CCCCCCCC(=O)OCOc1ccc2c3c1O[C@H]1C(=O)CC[C@@]4(O)C(C2)N(CC2CC2)CC[C@]314 [Compound 26, (((4aS,7aR,12bS)-3-(cyclopropylmethyl)-4a-hydroxy-7-oxo-2,3,4,4a,5,6,7,7a-octahydro-1H-4,12-methanobenzofuro[3,2-e]isoquinolin-9-yl)oxy)methyl (E)-octadec-9-enoate]	204.3-239^ mg/mL	<354 mg/mL	<0.001 mg/mL	–
C=C1CC[C@@]2(O)C3Cc4ccc(OC(=O)OCCCCCCCCCCCCCCCCCCCC)c5c4[C@@]2(CCN3CC2CC2)[C@H]1O5 [Compound 28, (4aS,7aS,12bS)-3-(cyclopropylmethyl)-4a-hydroxy-7-methylene-2,3,4,4a,5,6,7,7a-octahydro-1H-4,12-methanobenzofuro[3,2-e]isoquinolin-9-yl icosyl carbonate]	<50.2 mg/mL	<50.6 mg/mL	<0.001 mg/mL	–
C=C1CC[C@@]2(O)C3Cc4ccc(OCOC(=O)OCCCCCCCCCCC)c5c4[C@@]2(CCN3CC2CC2)[C@H]1O5 [Compound 5, (((4aS,7aS,12bS)-3-(cyclopropylmethyl)-4a-hydroxy-7-methylene-2,3,4,4a,5,6,7,7a-octahydro-1H-4,12-methanobenzofuro[3,2-e]isoquinolin-9-yl)oxy)methyl undecyl carbonate]	–	–	–	Solubility by volumetric flask method: Cottonseed oil [1]: >401.8 mg/mL; Solubility by volumetric flask method: Sesame oil [1]: >400.6 mg/mL; Equilibrium solubility (mg/mL) Water [4]: <0.001 mg/mL
CCCCCCCCCCCCCCOC(=O)OCOc1ccc2c3c1O[C@H]1C(=O)CC[C@@]4(O)C(C2)N(CC2CC2)CC[C@]314 [Compound 27, (((4aS,7aR,12bS)-3-(cyclopropylmethyl)-4a-hydroxy-7-oxo-2,3,4,4a,5,6,7,7a-octahydro-1H-4,12-methanobenzofuro[3,2-e]isoquinolin-9-yl)oxy)methyl tetradecyl carbonate]	>394.7 mg/mL	>399.2 mg/mL	<0.001 mg/mL	–
C=C1CC[C@@]2(O)C3Cc4ccc(OCOC(=O)CCCCCCCCCCCCCCC)c5c4[C@@]2(CCN3CC2CC2)[C@H]1O5 [Compound 46, (((4aS,7aS,12bS)-3-(cyclopropylmethyl)-4a-hydroxy-7-methylene-2,3,4,4a,5,6,7,7a-octahydro-1H-4,12-methanobenzofuro[3,2-e]isoquinolin-9-yl)oxy)methyl hexadecanoate]	>395.5 mg/mL	202 to 269 mg/mL	<0.001 mg/mL	–
CCCCCCCC/C=C\CCCCCCCC(=O)Oc1ccc2c3c1O[C@H]1C(=O)CC[C@@]4(O)C(C2)N(CC2CC2)CC[C@]314 [Compound 41, (4aS,7aR,12bS)-3-(cyclopropylmethyl)-4a-hydroxy-7-oxo-2,3,4,4a,5,6,7,7a-octahydro-1H-4,12-methanobenzofuro[3,2-e]isoquinolin-9-yl oleate]	<50 mg/mL	<50 mg/mL	–	Approximate Solubility (mg/mL) in Excipient: Cottonseed oil [3]: >407 mg/mL; Approximate Solubility (mg/mL) in Excipient: Ethanol [3]: >201 mg/mL
